Experimental data from article PMC6572573, “Development of a Ternary Solid Dispersion Formulation of LW6 to Improve the In Vivo Activity as a BCRP Inhibitor: Preparation and In Vitro/In Vivo Characterization” (Pharmaceutics, 2019).

Columns and labels:
[1] = Apparent aqueous solubility of LW6 formulations (HPLC); assay type: physicochemical; details: water
Method: For the selection of optimal carriers, SDs of LW6 were prepared with various hydrophilic polymers at a drug–carrier ratio of 1:5 using the solvent evaporation method. Briefly, LW6 was dissolved in dichloromethane by sonication for 10 min for complete solubilization. Each polymeric carrier was dissolved in dichloromethane and added to the drug solution. After vigorous mixing, all the solvents were eliminated under vacuum at room temperature. The resulting product was milled and sieved through an 80-mesh screen. The corresponding physical mixtures (PMs) were also prepared by mixing LW6 and each carrier with a mortar and pestle. The carrier that enhanced the LW6 solubility to the greatest extent was selected for preparing the ternary SD formulations of LW6. The effect of surfactants on the solubility of LW6 was also determined using a 10% aqueous solution of various surfactants.
Each formulation equivalent to 1 mg of LW6 was dissolved in 1 mL of distilled water and stirred at 300 rpm for 48 h at room temperature. […] The drug concentration in each filtrate was measured by HPLC assay.
HPLC assay for LW6: The concentrations of LW6 from in vitro samples were determined using a HPLC system (Perkin Elmer series 200, Waltham, MA, USA) consisting of a UV detector, a pump, and an automatic injector. […]

[2] = In vitro drug release (dissolution) studies; assay type: physicochemical; details: 37 °C, 100 rpm
Method: The drug release profiles of each formulation were examined at different pH conditions (1.2, 4.0, and 6.8). Each formulation (drug amount equivalent to 1 mg of LW6) was dispersed in different release media (10 mL) and stirred at 100 rpm, 37 °C. At predetermined time points (10, 20, 30, 45, and 60 min), the samples were collected and filtered through a 0.45-µm pore-sized cellulose syringe filters. The drug concentration in each filtrate was determined by HPLC assay.
HPLC assay for LW6: The concentrations of LW6 from in vitro samples were determined using a HPLC system (Perkin Elmer series 200, Waltham, MA, USA) consisting of a UV detector, a pump, and an automatic injector. A reversed-phase C18 column (Gemini C18, 4.6 × 150 mm, 5 µm; Phenomenex, Torrance, CA, USA) was eluted with a mobile phase consisting of acetonitrile and 0.1% formic acid (80:20, v/v). The flow rate was 1.0 mL/min at 30 °C, and the UV wavelength was set at 254 nm. Valsartan was used as an internal standard, and the calibration curve of LW6 was linear (r^2 = 0.99) within the concentration range of 0.05 to 100 µg/mL.

[3] = biological target: T1, BCRP (Rattus norvegicus, UniProt Q80W57); assay: Oral pharmacokinetics of topotecan (BCRP substrate) in rats with/without co-administered LW6 formulations; assay type: in vivo
T1 construct: from tissue; host or cells: living male Sprague-Dawley rats (intestine)
T1 sequence (Q80W57 1-657): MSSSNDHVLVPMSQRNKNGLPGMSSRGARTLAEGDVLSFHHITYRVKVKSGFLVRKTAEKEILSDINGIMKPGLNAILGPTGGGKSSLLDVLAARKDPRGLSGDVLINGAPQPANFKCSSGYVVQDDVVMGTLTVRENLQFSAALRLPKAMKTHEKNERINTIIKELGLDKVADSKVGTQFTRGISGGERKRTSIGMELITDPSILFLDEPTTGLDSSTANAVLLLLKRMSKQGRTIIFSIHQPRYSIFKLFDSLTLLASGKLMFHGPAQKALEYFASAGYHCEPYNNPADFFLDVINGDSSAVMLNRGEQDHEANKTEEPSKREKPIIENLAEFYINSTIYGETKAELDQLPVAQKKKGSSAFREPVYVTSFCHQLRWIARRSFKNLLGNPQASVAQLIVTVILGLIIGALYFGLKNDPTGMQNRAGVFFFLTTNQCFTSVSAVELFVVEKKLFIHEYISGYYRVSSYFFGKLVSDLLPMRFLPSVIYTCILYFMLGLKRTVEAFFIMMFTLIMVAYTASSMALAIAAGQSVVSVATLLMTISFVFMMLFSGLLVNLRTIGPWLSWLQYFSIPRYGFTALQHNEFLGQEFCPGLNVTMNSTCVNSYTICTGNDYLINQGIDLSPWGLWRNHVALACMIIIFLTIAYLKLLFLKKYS
Method: The pharmacokinetic profiles of topotecan, which is a representative BCRP substrate, were examined in rats with/without the co-administration of LW6 in different formulations. Animal studies were carried out in accordance with the “Guiding Principles in the Use of Animals in Toxicology” adopted by the Society of Toxicology (USA), and the study protocol was approved by the review committee of Dongguk University (IACUC-2017-016-2). Male Sprague–Dawley rats (260–280 g) were provided by Orient bio Co., Ltd. (Seongnam, Korea). All the rats were given free access to tap water and a normal standard chow diet (Superfeed Company, Wonju, Korea). The rats were fasted for 18 h before the experiments, and divided into three groups (n = 3 per group). The pure drug or SD (equivalent to 20 mg/kg of LW6) was suspended in 0.5% aqueous methylcellulose with 5% polyethylene glycol (PEG) and topotecan (10 mg/kg) was dissolved in saline. Each formulation was given orally to the three groups of rats (group 1, topotecan only; group 2, topotecan + pure LW6; group 3, topotecan + SD of LW6). Blood samples were obtained from the femoral artery at the predetermined time points. The blood samples were centrifuged at 13,000 rpm for 5 min, and the obtained plasma samples were frozen at −20 °C until analyzed by liquid chromatography-tandem mass spectrometry (LC-MS/MS).
LC-MS/MS assay for topotecan: The concentration of topotecan in rat plasma was determined using LC-MS/MS assay as reported by Ye et al.. Briefly, 100 µL of plasma, 20 µL of the internal standard camptothecin (1 µg/mL), and 180 µL of methanol were mixed vigorously, and then centrifuged at 13,000 rpm for 5 min. After centrifugation, 240 µL of the supernatant was collected and dried under vacuum. After complete drying, the residue was re-dispersed in methanol and analyzed by LC-MS/MS. Chromatographic separation was done with a C18 column (4.6 × 100 mm, 2.6 μm; Phenomenex, Torrance, CA, USA) using a mobile phase consisting of acetonitrile and 0.1% formic acid (80:20, v/v) at a flow rate of 0.4 mL/min. Mass spectrometric detection was done using the AB Sciex API 4000 triple quadrupole mass spectrometer (AB Sciex, Framingham, MA, USA). The electrospray ionization (ESI) source was set in positive ionization mode. The precursor/product ion pair (m/z) was 422.2/377.1 for topotecan and 349.1/305.2 for camptothecin (IS). The calibration curve was prepared at concentrations of 1 to 1000 ng/mL with a good linearity of r^2 value greater than 0.99.
Based on the noncompartmental analysis, the area under the plasma concentration–time curve (AUC) was calculated using the linear trapezoidal method. The peak plasma concentration (Cmax) and the time to reach the peak plasma concentration (Tmax) were values recorded from the experimental data.

[4] = tested on: breast cancer resistance protein (BCRP); design: method as in PMID 27520631; details: previous reports ref 4; cited from earlier work
[5] = male, Sprague-Dawley, rat, plasma, oral topotecan 10 mg/kg, with or without LW6 20 mg/kg (pure or F8-SD), mean ± SD (n = 3)

Aqueous solubility of pure LW6 (in words) [1] | Drug release within 20 min ([2]; acidic to neutral pH range (pH 1.2, 4.0, 6.8)) | Drug release within 1 h ([2]; water) | Increase in oral (systemic) exposure of topotecan by coadministration ([3]; oral topotecan 10 mg/kg + LW6 20 mg/kg equivalent, versus topotecan only) | AUC [3, 5] [ng·h/mL] | Cmax [3, 5] [ng/mL] | Tmax [3, 5] [h] | half-life ([3]; male, Sprague-Dawley, rat, plasma, oral topotecan 10 mg/kg, with or without LW6 20 mg/kg (pure or F8-SD), mean ± SD (n = 3), read-out: T1/2 of topotecan (converted)) [h] | Compound | BCRP inhibitory potency compared with typical BCRP inhibitor [4]
practically insoluble | negligible | minimal | approximately threefold | – | – | – | – | COC(=O)c1ccc(O)c(NC(=O)COc2ccc(C34CC5CC(CC(C5)C3)C4)cc2)c1 [LW6, 3-[2-(4-adamantan-1-yl-phenoxy)-acetylamino]-4-hydroxy-benzoic acid methyl ester] | more potent than Kol43
– | – | – | – | 204 ± 11.1 | 31.3 ± 7.1 | 0.4 ± 0.1 | 2 ± 0.4 | CC[C@@]1(O)C(=O)OCc2c1cc1n(c2=O)Cc2cc3c(CN(C)C)c(O)ccc3nc2-1 [Topotecan, topotecan] | –
